Read-outs that look alike come from different tables or passages of the source.
Tests used:
[1] = molecular target: casein kinase 2 (CK2) complex proteins (CSNK2A1/3, CSNK2A2, CSNK2B, EIF3J); assay: Kinobead competition assay; assay type: binding, human; conditions: dose-dependent competition
From the text: The binding of KV-24 and KV-30 to the nucleotide-binding pocket raises the question of whether these compounds also target other nucleotide-binding proteins, such as kinases. To evaluate potential off-target effects, we performed Kinobead competition assays. This chemoproteomic approach is conceptually very similar to the one used here in that broad spectrum kinase inhibitors are immobilized on beads. […] PDE1C is a cAMP/cGMP nucleotide-binding protein that features two divalent metal cation cofactors. The hydroxamic acid moiety of KV-24 might chelate these metal cofactors, supporting the hypothesis that KV-24 binds the active site of PDE1C. […]
Given that local GTP production by NME1 and NME2 is essential for fueling dynamin-driven endocytosis, we investigated the effect of KV-50-mediated NME1/2 inhibition on fluorescent transferrin (TF) uptake in cells. HeLa cells were treated with KV-50 or known endocytosis inhibitors (Pitstop-2 and Dynasore), and surface-bound and internalized fluorescent TF were quantified. […]
LC-MS/MS. The different sample types were measured with different LC-MS/MS settings. MBLAC2 2-dose competition assays were measured with the Lumos1 setup, MBLAC2 9-dose competition assays were measured with the Lumos2 setup, and kinobeads assays were measured with the Eclipse setup. […]

[2] = tested on: compound-binding proteins such as HDACs, MBLAC2, ISOC1/2, ALDH2, and GATD3A; assay: chemoproteomic competition assay, proteome-wide target binding profile; design: species or system human; conditions: dose-dependent competition
Description: (§1) MBLAC2 is a metalloenzyme predicted to harbor one or two Zn^2+ ions in its active site. […] In this assay, compounds of interest are incubated at increasing concentrations with a mixture of lysates of MV4–11 and SW620 cells. The compound-treated lysates are then mixed with bead-immobilized hydroxamic acid-containing compounds iA, iC, and iQ (immobilized Quisinostat), which pull down compound-binding proteins such as HDACs, MBLAC2, ISOC1/2, ALDH2, and GATD3A (Figure a) that can be identified and quantified by mass spectrometry (MS). Proteins targeted by the library compounds in a preincubation step are prevented from being pulled down by the immobilized probes, leading to a dose-dependent reduction in MS signal. Initially, 12 metal-chelating compounds were profiled at two concentrations (10 μM and 100 μM) (Figure S3).
(§2) Chemoproteomic competition assays
Sample preparation. For the MBLAC2 and HDAC inhibitor competition assay, the generation of affinity matrices, lysate generation, pulldown assay, and sample preparation were performed as described in detail in REF1. For the kinobeads assay, the generation of affinity matrices, lysate generation, pulldown assay, and sample preparation were performed as described in detail in REF2.
(§3) LC-MS/MS. The different sample types were measured with different LC-MS/MS settings. MBLAC2 2-dose competition assays were measured with the Lumos1 setup, MBLAC2 9-dose competition assays were measured with the Lumos2 setup, and kinobeads assays were measured with the Eclipse setup.
Peptides were analyzed via LC–MS/MS on a Dionex Ultimate3000 nano HPLC coupled to either one of two Orbitrap Fusion Lumos mass spectrometers, or to an Orbitrap Eclipse mass spectrometer, operated via the Thermo Scientific Xcalibur software.
In the all setups, peptides were loaded on a trap column (100 μm × 2 cm, packed in-house with Reprosil-Gold C18 ODS-3 5 μm resin, Dr. Maisch, Ammerbuch) and washed with 5 μL/min solvent A (0.1% formic acid in HPLC grade water) for 10 min. Peptides were then separated on an analytical column (75 μm × 40 cm, packed in-house with Reprosil-Gold C18 3μm resin, Dr. Maisch, Ammerbuch) using a 50 min gradient ranging from 4 to 32% solvent B (0.1% formic acid, 5% DMSO in acetonitrile) in solvent A (0.1% formic acid, 5% DMSO in HPLC grade water) at a flow rate of 300 nL/min.
The mass spectrometers were operated in data-dependent mode, automatically switching between MS1 and MS2 spectra. MS1 spectra were acquired over a mass-to-charge (m/z) range of 360–1300 m/z at a resolution of 60,000 (at m/z 200) in the Orbitrap using a maximum injection time of 50 ms and an automatic gain control (AGC) target value of 4e5.
In Lumos settings, up to 12 peptide precursors were isolated in (isolation width of 1.2 Th for Lumos1 and 1.7 for Lumos2, maximum injection time of 75 ms, AGC value of 1e5 for Lumos1 and 2e5 for Lumos2), fragmented by HCD using 30% normalized collision energy (NCE) and analyzed in the Orbitrap at a resolution of 15,000 (Lumos2) or 30,000 (Lumos1). The dynamic exclusion duration of fragmented precursor ions was set to 20 s (Lumos1) or 30 s (Lumos2). In Eclipse measurements, a cycle time of 2 s was chosen. Peptides were isolated in the quadrupole with an isolation offset of 1.2 (isolation width of 1.2 Th, maximum injection time of 54 ms, AGC target of 200%) and fragmented by […]

SW620 cells = assay: SW620 confluency and metabolic activity (Alamar blue assay); assay type: cell-based; conditions: Homo sapiens, SW-620
HeLa cells = assay: clathrin-mediated endocytosis of fluorescently labeled transferrin; assay type: cell-based
Description: To test this hypothesis, we measured clathrin-mediated endocytosis of fluorescently labeled transferrin (TF) in the presence and absence of MBLAC2 inhibitors.
CME of transferrin and confocal microscopy analyses.For transferrin uptake experiments HeLa cells were seeded on Matrigel-coated coverslips, and incubated with 0.1 % DMSO, or with 100 µM dynasore, 20 µM KV50, 2 µM KV65, or 2 µM KV79 in media containing 10% FCS at 37°C for 20 h.

recombinant NME1–4 = assay: nucleoside diphosphate kinase activity assay (ATP production from ADP and GTP, Kinase-GLO); assay type: biochemical; conditions: ADP (150 μM) and GTP (150 μM); range over all four enzymes; read-out: EC50 inhibition of NME1–4
Description: To evaluate whether KV-50 binding affects NME activity, we performed enzyme activity assays using recombinant NME1–4. The assay measured NME-catalyzed production of ATP from ADP (150 μM) and GTP (150 μM).
Nucleotide diphosphate kinase activity assays. The phosphotransfer activity of the NDPKs (NME1-4) was measured in a reaction mixture containing buffer A (20 mM Tris-HCl pH 8.0, 150 mM NaCl, and 1 mM MgCl2). All the samples were pipetted in replicates on a 384 well plate. One volume of the respective NDPK protein solution (NME1-4) was added from stock proteins (diluted in buffer a to a concentration of 300 pM) to the wells in four replicates. To these wells, one volume of the inhibitors (Six dilutions were prepared, starting with a 30 µM stock solution and then performing three-fold serial dilutions) was added and incubated at room temperature for 30 minutes. Then, one volume of the substrate mixture (300 μM GTP and 30 μM ADP) was added to the protein-inhibitor mixture-containing wells and incubated at room temperature for 30 minutes. Finally, three volumes of the Kinase-GLO reagent (Promega V6711) containing an ATP-dependent firefly luciferase were added to all the wells and five minutes later, the luminescence was measured using a plate reader. Eight different concentrations of ATP (0 - 10 μM) were used as standards for a calibration curve to calculate the amount of ATP produced by the different NDPKs.

HDAC6 = molecular target: T1, HDAC6 (Homo sapiens, UniProt Q9UBN7); assay: chemoproteomic competition assay (MV4-11/SW620 lysate, iA/iC/iQ beads, MS readout); assay type: binding; conditions: two-dose (1 μM and 10 μM) assay
T1 construct: incubated at increasing concentrations with a mixture of lysates of MV4–11 and SW620 cells; endogenous in cells; host or cells: mixed lysate of MV4-11 and SW620 cells
T1 sequence (Q9UBN7 1-1215): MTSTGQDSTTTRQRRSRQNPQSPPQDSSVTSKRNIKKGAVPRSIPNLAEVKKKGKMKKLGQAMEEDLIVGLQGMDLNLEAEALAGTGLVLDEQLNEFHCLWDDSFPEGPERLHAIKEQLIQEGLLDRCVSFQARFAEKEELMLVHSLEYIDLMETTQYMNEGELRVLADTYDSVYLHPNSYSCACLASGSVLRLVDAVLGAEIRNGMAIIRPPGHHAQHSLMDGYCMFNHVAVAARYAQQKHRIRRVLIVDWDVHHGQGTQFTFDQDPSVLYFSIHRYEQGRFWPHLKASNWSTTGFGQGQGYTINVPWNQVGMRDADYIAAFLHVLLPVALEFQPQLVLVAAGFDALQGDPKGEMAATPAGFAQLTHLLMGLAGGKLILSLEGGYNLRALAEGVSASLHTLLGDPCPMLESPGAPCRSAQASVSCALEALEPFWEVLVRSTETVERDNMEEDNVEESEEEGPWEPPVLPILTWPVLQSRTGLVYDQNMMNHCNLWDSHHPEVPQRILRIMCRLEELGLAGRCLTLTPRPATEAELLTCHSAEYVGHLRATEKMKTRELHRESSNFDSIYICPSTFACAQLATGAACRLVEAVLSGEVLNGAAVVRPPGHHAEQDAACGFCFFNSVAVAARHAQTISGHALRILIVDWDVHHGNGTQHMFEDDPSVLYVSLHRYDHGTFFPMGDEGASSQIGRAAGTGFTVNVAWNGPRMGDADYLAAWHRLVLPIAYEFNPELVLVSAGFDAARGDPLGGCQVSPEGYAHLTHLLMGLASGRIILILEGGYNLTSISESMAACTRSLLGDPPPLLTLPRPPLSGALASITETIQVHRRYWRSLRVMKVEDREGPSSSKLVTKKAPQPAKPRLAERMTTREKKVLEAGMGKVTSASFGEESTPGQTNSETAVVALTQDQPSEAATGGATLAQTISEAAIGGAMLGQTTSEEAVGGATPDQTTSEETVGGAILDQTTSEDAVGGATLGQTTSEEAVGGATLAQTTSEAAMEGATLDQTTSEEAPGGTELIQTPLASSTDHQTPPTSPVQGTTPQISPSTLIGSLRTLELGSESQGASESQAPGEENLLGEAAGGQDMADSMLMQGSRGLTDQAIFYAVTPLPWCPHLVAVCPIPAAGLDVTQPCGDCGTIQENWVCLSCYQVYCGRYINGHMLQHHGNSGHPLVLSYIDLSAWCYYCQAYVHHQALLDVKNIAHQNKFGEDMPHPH
Description: as §1, with “Initially, 12 metal-chelating compounds were profiled at two concentrations (10 μM and 100 μM) (Figure S3).” left out
as §2
(§4) Sample preparation. […]
as §3
(§5) Peptides were analyzed via LC–MS/MS on a Dionex Ultimate3000 nano HPLC coupled to either one of two Orbitrap Fusion Lumos mass spectrometers, or to an Orbitrap Eclipse mass spectrometer, operated via the Thermo Scientific Xcalibur software. […]

MBLAC2 = molecular target: T2, MBLAC2 (Homo sapiens, UniProt Q68D91); assay: as above; assay type: binding; conditions: two-dose (1 μM and 10 μM) assay
T2 construct: incubated at increasing concentrations with a mixture of lysates of MV4–11 and SW620 cells; endogenous in cells; host or cells: mixed lysate of MV4-11 and SW620 cells
T2 sequence (Q68D91 1-279): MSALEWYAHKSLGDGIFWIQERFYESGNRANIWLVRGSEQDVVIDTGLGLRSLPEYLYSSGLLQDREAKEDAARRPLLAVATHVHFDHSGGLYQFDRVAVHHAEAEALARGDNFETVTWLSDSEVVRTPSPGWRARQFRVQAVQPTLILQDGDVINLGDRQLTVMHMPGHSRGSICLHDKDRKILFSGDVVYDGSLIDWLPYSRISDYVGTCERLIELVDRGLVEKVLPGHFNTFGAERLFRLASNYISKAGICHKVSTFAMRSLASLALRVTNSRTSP

NMEs = conditions: free nonacetylated Quisinostat; prior competition experiments; cited from earlier work
ISOC1 = molecular target: T3, ISOC1 (Homo sapiens, UniProt Q96CN7); assay: chemoproteomic competition assay (MV4-11/SW620 lysate, iA/iC/iQ beads, MS readout); assay type: binding; conditions: nine-dose competition assay
T3 construct: incubated at increasing concentrations with a mixture of lysates of MV4–11 and SW620 cells; endogenous in cells; host or cells: mixed lysate of MV4-11 and SW620 cells
T3 sequence (Q96CN7 1-298): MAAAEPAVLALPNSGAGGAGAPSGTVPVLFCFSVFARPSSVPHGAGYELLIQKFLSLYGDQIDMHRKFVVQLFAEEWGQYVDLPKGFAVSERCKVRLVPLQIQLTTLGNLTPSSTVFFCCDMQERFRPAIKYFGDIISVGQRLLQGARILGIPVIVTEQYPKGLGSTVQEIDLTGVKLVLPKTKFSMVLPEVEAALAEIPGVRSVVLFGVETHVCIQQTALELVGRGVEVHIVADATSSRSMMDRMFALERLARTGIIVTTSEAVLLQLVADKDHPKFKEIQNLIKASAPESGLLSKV
Description: as §1, §2, §4, §3, §5
In Lumos settings, up to 12 peptide precursors were isolated in (isolation width of 1.2 Th for Lumos1 and 1.7 for Lumos2, maximum injection time of 75 ms, AGC value of 1e5 for Lumos1 and 2e5 for Lumos2), fragmented by HCD using 30% normalized collision energy (NCE) and analyzed in the Orbitrap at a resolution of 15,000 (Lumos2) or 30,000 (Lumos1). […] Peptides were isolated in the quadrupole with an isolation offset of 1.2 (isolation width of 1.2 Th, maximum injection time of 54 ms, AGC target of 200%) and fragmented by HCD with an NCE of 30% and analyzed in the Orbitrap at a resolution of 30,000. […]

Cl.O=C(NO)c1ccc(-c2nc3ccccc3c3[nH]c4ccccc4c23)cc1 [KV-50]
EC50 [1]: 1 to 2 µM | targets / off-targets bound [2]: bound to HINT1 and NME4 | IC50 (SW620 cells; SW620, Alamar blue, read-out: concentration decreasing metabolic activity by 50%): 3.6 µM | IC50 (SW620 cells; read-out: concentration reducing SW620 cell confluency by 50%): 0.87 µM | morphological changes (HeLa cells; HeLa cells under TF assay conditions, similar in SW-620 and HEK293T): rounding and swelling of cells | ratio of internalized TF to surface-bound TF (HeLa cells; HeLa cells, 20 µM, 20 h): reduced ratio of internalized TF to surface-bound TF | EC50 (recombinant NME1–4): 2 to 5 µM

CC(=O)c1ccc(CN2c3ccccc3Sc3ccccc32)cc1 [MM-20]
concentration up to which no binding to HDAC6 (HDAC6): > 10 µM | concentration up to which no binding to MBLAC2 (MBLAC2): > 10 µM

Cn1cc(CNCC2CCN(c3ncc(C(=O)NO)cn3)CC2)c2ccccc21 [Quisinostat]
concentration up to which no binding to NMEs (NMEs): > 30 µM

COc1ccc(N(C)c2nc(C)nc3ccccc23)cc1OCCCC(=O)NO [SKLB-23bb]
EC50 (ISOC1): 5.6 µM
